Assay results as given in patent US20090131354A1, “miR-126 REGULATED GENES AND PATHWAYS AS TARGETS FOR THERAPEUTIC INTERVENTION” (priority 2007, published 2009).

Legend:
[1] = system: RWPE2 prostate cancer cells; assay: Alamar Blue proliferation assay, RWPE2; format: cell-based, human; settings: 30 nM, normalized to negative control miRNA (100% proliferation)
Description: The inventors assessed the therapeutic effect of hsa-miR-126 for prostate cancer by using 4 individual human prostate cancer cell lines. To measure cellular proliferation of prostate cancer cells, the following prostate cancer cell lines were used: PPC-1, derived from a bone metastasis; Du145, derived from a brain metastasis; RWPE2, derived from prostate cells immortalized by human papillomavirus 18 and transformed by the K-RAS oncogene; and LNCaP, derived from a lymph node metastasis (Stone et al., 1978; Horoszewicz et al., 1980; Brothman et al., 1991; Pretlow et al., 1993; Bello et al., 1997). PPC-1 and Du145 cells lack expression of the prostate-specific antigen (PSA) and are independent of androgen receptor (AR) signaling. In contrast, RWPE2 and LNCaP cells test positive for PSA and AR. Cells were transfected with synthetic hsa-miR-126 (Pre-miR™-hsa-miR-126, Ambion cat. no. AM 17100) or negative control miRNA (NC; Pre-miR™ microRNA Precursor Molecule-Negative Control #2; Ambion cat. no. AM17111) in a 96-well format using a lipid-based transfection reagent. […] Proliferation was assessed 4-7 days post-transfection using Alamar Blue™ (Invitrogen) following the manufacturer's instructions. […] Fluorescent light units (FLU) were measured after 3 hours, normalized to the control, and plotted as percent change in proliferation. […]

H460 lung cancer cells = assay: Dose-dependent inhibition of proliferation (Alamar Blue), H460; format: cell-based, human; settings: normalized to mock-transfected cells (0 pM = 100%)
Description: Lipid-based reverse transfections were carried out in triplicate according to a published protocol (Ovcharenko et al., 2005) and the following parameters: Cells (5,000-12,000 per 96 well), 0.1-0.2 μl Lipofectamine™ 2000 (cat. no. 11668-019, Invitrogen Corp., Carlsbad, Calif., USA) in 20 μl OptiMEM (Invitrogen), 30 nM final concentration of miRNA in 100 μl. Electroporation of H226 cells was carried out using the BioRad Gene Pulser Xcell™ instrument (BioRad Laboratories Inc., Hercules, Calif., USA) with the following settings: 5×10^6 cells with 5 μg miRNA in 200 μl OptiMEM (1.6 μM miRNA), square wave pulse at 250 V for 5 ms. Electroporated H226 cells were seeded at 7,000 cells per 96-well in a total volume of 100 μl. All cells except for Calu-3 cells were harvested 72 hours post transfection or electroporation for assessment of cellular proliferation. Calu-3 cells were harvested 10 days post transfection. Proliferation assays were performed using Alamar Blue (Invitrogen) following the manufacturer's instructions. As a control for inhibition of cellular proliferation, siRNA against the motor protein kinesin 11, also known as Eg5, was used. Eg5 is essential for cellular survival of most eukaryotic cells and a lack thereof leads to reduced cell proliferation and cell death (Weil et al., 2002). siEg5 was used in lipid-based transfection following the same experimental parameters that apply to miRNA. The inventors also used a DNA topoisomerase II inhibitor, etoposide, at a final concentration of 10 μM and 50 μM as an internal standard for the potency of miRNAs. Etoposide is an FDA-approved DNA topoisomerase II inhibitor in the treatment of lung cancer. […] Percent (%) proliferation values from the Alamar Blue assay were normalized to values from cells treated with negative control miRNA. Percent proliferation of hsa-miR-126 treated cells relative to cells treated with negative control miRNA (100%) is shown in Table 6 and in FIG. 1.
The inventors determined sensitivity and specificity of hsa-miR-126 by administering hsa-miR-126 or negative control miRNA at increasing concentrations, ranging from 0 pM to 3,000 pM (Table 7, FIG. 2). Delivery of miRNA and assessment of cellular proliferation of A549 and H460 cells were done as described above. Proliferation values from the Alamar Blue assay were normalized to values obtained from mock-transfected cells (0 pM=100% proliferation). Increasing amounts of negative control miRNA (NC) had no effect on cellular proliferation of A549 or H460 cells (Table 7 and FIG. 2). In contrast, the growth-inhibitory phenotype of hsa-miR-126 is dose-dependent and correlates with increasing amounts of hsa-miR-126 (Table 7 and FIG. 2). Hsa-miR-126 induces a specific therapeutic response at concentrations as low as 300 pM.

[2] = system: MCF12A, BT549, TE353SK, 22Rv1, A549, CRL-5826, HTB-57 cells; settings: cited from earlier work

hsa-miR-126 (UCGUACCGUGAGUAAUAAUGC; synthetic pre-miR form, further chemistry not given here) [Synthetic hsa-miR-126 (Pre-miR™-hsa-miR-126, Ambion cat. no. AM17100)]
% proliferation [1]: 91.82%
% proliferation (H460 lung cancer cells; H460 cells, 3 pM miRNA): 105.60%
% proliferation (H460 lung cancer cells; H460 cells, 30 pM miRNA): 108.98%
% proliferation (H460 lung cancer cells; H460 cells, 300 pM miRNA): 86.46%
% proliferation (H460 lung cancer cells; H460 cells, 3,000 pM miRNA): 33.91%
effect on proliferation [2]: decreasing proliferation
